# In patent US8980874B2, “Method and composition for treating diabetic ketoacidosis” (Midwestern University, priority 2009, dated 2015):
# Entries after “also recorded” stand apart in the source; their conditions may differ. Structures can show the parent of a compound that is named as a salt.
# Tests used:
# Format in all cases: in vivo
# [1] = system: rat model of DKA; test: Brain blood perfusion (Laser Doppler Flowmetry) in diabetic ketoacidosis rats; conditions: day 4, FIG. 6, antagonist given with saline+insulin, result in words
# Experimental: A burr hole was drilled into the rat skull approximately 2 millimeters (mm) to the left of midline, being careful not to disturb the brain tissue itself. Cerebrovascular perfusion was measured via a fiber optic probe (PF407) applied to the surface of the rat brain. The probe was connected to a Periflux PF2b 4000 Laser Doppler Flowmetry unit (Perimed, Stockholm, Sweden). The perfusion was determined by measuring the passage of red blood cells through the capillaries.
# (§1) Group 4: Diabetic saline/insulin treated (D-Saline+insulin treated): Rats were injected with streptozotocin in citrate buffer (150 mg/kg ip) to induce diabetes and ketoacidosis. On day three, rats were treated with 1.5 U/kg regular insulin (Humulin® R (Regular human insulin, rDNA origin). On day four, saline and insulin treatment was carried out. Rats were infused via cannulated femoral vein saline, 0.9% NaCl at 80 mL/kg/hr and 1.5 U/kg/hr regular insulin for one hour. During the next two through four hours, rats were infused with saline, 0.9% NaCl at 40 mL/kg/hr and 1.5 U/kg/hr regular insulin (Yuen et al., 2008).
# (§2) Group 5: Diabetic BMS-182874/saline/insulin treated (D-BMS+Saline+insulin treated): Rats were injected with streptozotocin in citrate buffer (150 mg/kg ip) to induce diabetes and ketoacidosis. On day three, rats were treated with 1.5 U/kg regular insulin. On day four, rats were administered a bolus dose of selective ETA receptor antagonist, BMS-182874 (9 mg/kg), then saline and insulin treatment was carried out. Rats were infused via cannulated femoral vein saline, 0.9% NaCl at 80 mL/kg/hr and 1.5 U/kg/hr regular insulin for one hour. During the next two through four hours rats were infused with saline, 0.9% NaCl at 40 mL/kg/hr and 1.5 U/kg/hr regular insulin.
# (§3) Group 6: Diabetic BQ123/saline/insulin treated (D-BQ+saline+insulin treated): Same as above for Group 5, except BQ123 (1 mg/kg body weight) is used as a substitute for BMS-182874 (9 mg/kg).
# (§4) Data are presented as mean±SEM. The significance of differences was estimated by one-way analysis of variance (intra group comparison with respect to base line data) and two-way analysis of variance (inter group comparison with respect to corresponding time points from each groups) followed by application of the Dunnett's Multiple Comparisons and Bonferroni test respectively. A P value of less than 0.05 was considered to be significant. The statistical analysis was processed with GraphPad Prism software Version 5.00.
# [2] = system: rat model of DKA; test: Cardiovascular parameters (MAP, pulse pressure, heart rate) in diabetic ketoacidosis rats
# Source text: Rats were anaesthetized with urethane (1.5 g/kg ip.) and prepared for the determination of hemodynamic parameters (Gulati et al., 1997a; Gulati et al., 1997b). The anesthetized rats were shaved and immobilized to prepare for cannulation. A 2-3 centimeter (cm) incision was made above the femoral vein and artery and the vessels were dissected and cleaned. The left femoral vein was cannulated (PE-50 tubing, Clay Adams, Parsipanny, N.J.) and secured for drug administration. An ultra-miniature pressure transducer SPR-320 (2F Polyurethane), with a single pressure sensor side mounted at the tip (Millar Instruments, Houston, Tex.) was inserted in the left femoral artery to acquire the hemodynamic signals. Pressure transducer was connected to bridge amplifier (ML221 Bridge Amp; AD Instruments, Mountain View, Calif., USA) with Viking connector (AEC-10C) and the signals were continuously acquired at a sampling rate of 1000 S^−1 using Millar PowerLab 16/30 data acquisition system (AD Instruments, Mountain View, Calif., USA). Mean arterial pressure (MAP), heart rate (HR), and pulse pressure (PP) were determined and analyzed with LabChart-5.00 software program (Millar Instruments). After the experiment was completed, the animals were euthanized with a high dose of urethane (3 gm/kg).
# as §1, §2, §3, §4
# [3] = system: rat model of DKA; test: Blood glucose in streptozotocin-induced diabetic ketoacidosis rats
# Experimental: Normotensive Sprague Dawley rats were kept on fasting for 2 hours with unlimited access to water. After 2 hours of fasting, rats were injected intraperitoneally with 150 mg/kg of streptozotocin in 0.05 mol/L citric acid, pH 4.3 to induced diabetes (Lam et al., 2005; Yuen et al., 2008), while non-diabetic control rats received an intraperitoneal injection of 0.05 mol/L citrate buffer (Lam et al., 2005; Yuen et al., 2008). Rats were allowed unlimited access to tap water and food. Each day rats were weighed and urine ketone levels were estimated by Urine Reagent Strips, 1K Parameter. Prior to streptozotocin or citrate buffer injection, baseline blood glucose levels were assessed by One Touch Ultra blood glucose strips from Lifescan, Milpitas, Calif., and baseline blood ketone levels were estimated using Cardiochek blood ketone analyzer. Blood glucose and ketone were measured again on day three and four to ensure the onset of hyperglycemia and ketoacidosis. […] Blood samples were withdrawn from the femoral […] for baseline reading prior to start of treatment, after the first hour of treatment, and then at the end of the treatment (fifth hour of experiment).
# The animals were allowed to stabilize for at least 20 minutes following surgical procedures. Body weight, blood glucose, urinary ketone, blood ketone, arterial blood gases, blood electrolytes, mean arterial pressure, pulse pressure, heart rate, brain blood perfusion, brain and lung water content were determined in the following groups
# as §1, §2, §3, §4
# [4] = system: rat model of DKA; test: Arterial blood gases, electrolytes, lactate and hematocrit in diabetic ketoacidosis rats; conditions: for arterial blood pH, Day 4 (pre-tx): instrument could not record pH below 6.80, mean±SEM
# Source text: Arterial blood pH, pO2, pCO2, Na^+, K^+, lactate, and hematocrit were monitored prior to, at one hour, and at the end of treatment. Blood samples were drawn from the arterial cannula using blood gas sampling syringes (Innovative Medical Technologies, Inc. Leawood, Kans.) and analyzed using a GEM Premier 3000 unit (Instrument Laboratory, Lexington, Mass.). Blood samples were withdrawn from the femoral artery for baseline reading prior to start of treatment, after the first hour of treatment, and then at the end of the treatment (fifth hour of experiment).
# as §1, §2, §3, §4
# [5] = day 4, BMS-182874+saline+insulin group
# [6] = day 4, compared to diabetic untreated rats, result in words
# [7] = saline+insulin, alone or after bolus BMS-182874 9 mg/kg or BQ123 1 mg/kg
smiles,measurement,setting,value
"Cc1noc(NS(=O)(=O)c2cccc3c(N(C)C)cccc23)c1C [BMS-182874, (5-Dimethylamino)-N-(3,4-dimethyl-5-isoxazolyl)-1-naphthalene sulfonamide hydrochloride]",effect on cerebral blood perfusion,[1]; hydrochloride,significantly blocked; also recorded: prevented
same,effect on cerebral blood perfusion,"[1]; listed as BMS182874, hydrochloride",prevented an insulin induced increase in cerebral blood perfusion
same,effect on mean arterial pressure,"[2]; day 4, FIG. 3, antagonist given with saline+insulin, result in words",stabilized the arterial pressure
same,effect on pulse pressure,"[2]; day 4, FIG. 4, antagonist given with saline+insulin, result in words",stabilized the pulse pressure
same,effect on heart rate,"[2]; day 4, FIG. 5, antagonist given with saline+insulin, result in words",did not produce any decrease in heart rate compared to baseline
same,effect on insulin induced hypertension,"[2]; day 4, result in words",prevented development of insulin induced hypertension
same,"blood glucose, Day 4 (pre-tx)","[3]; baseline before treatment on day 4, mean±SEM",522 ± 18 mg/dL
same,effect of treatment on blood glucose,"[3]; day 4, result in words",did not significantly affect blood glucose
same,"blood glucose, Day 4 (end of tx)","[3]; saline+insulin infusion, alone or after bolus BMS-182874 9 mg/kg or BQ123 1 mg/kg, fifth hour, mean±SEM",263 ± 32 mg/dL
same,"blood glucose, Day 4 (1 hour of tx)","[3]; saline+insulin infusion, alone or after bolus BMS-182874 9 mg/kg or BQ123 1 mg/kg, mean±SEM",446 ± 36 mg/dL
same,"arterial blood pH, Day 4 (pre-tx)","[4]; baseline, hydrochloride",6.82±0.02
same,"arterial blood pH, Day 4 (pre-tx)","[4]; baseline, listed as BMS, hydrochloride",6.82 ± 0.02
same,"arterial blood pCO2, Day 4 (pre-tx)","[4]; baseline, mean±SEM",28.71 ± 2.08 mmHg
same,"arterial blood pO2, Day 4 (pre-tx)","[4]; baseline, mean±SEM",156.71 ± 7.11 mmHg
same,"blood K+ level, Day 4 (pre-tx)","[4]; baseline, mean±SEM",4.21 ± 0.33 mmol/L
same,"blood Na+ level, Day 4 (pre-tx)","[4]; baseline, mean±SEM",135.71 ± 2.06 mmol/L
same,"blood hematocrit (Hct), Day 4 (pre-tx)","[4]; baseline, mean±SEM",45.71 ± 1.48%
same,"blood K+ levels, after treatment (to)",[4]; [5],2.75 ± 0.27 mM
same,"blood K+ levels, before treatment (from)",[4]; [5],4.21 ± 0.33 mM
same,effect of treatment on arterial blood pH (acidosis),"[4]; day 4, antagonist given with saline+insulin, result in words",produced a significant improvement in arterial blood pH
same,effect of treatment on blood K+ levels,[4]; [6],significantly reduced the change in blood K^+ levels
same,effect of treatment on blood lactate levels,[4]; [6],significantly reduced the change in blood lactate levels
same,effect of treatment on hematocrit,[4]; [6],significantly reduced the hematocrit
same,"arterial blood pCO2, Day 4 (1 hour of tx)",[4]; [7],30.57 ± 1.94 mmHg
same,"arterial blood pCO2, Day 4 (end of tx)",[4]; [7],30.57 ± 2.23 mmHg
same,"arterial blood pO2, Day 4 (1 hour of tx)",[4]; [7],135.57 ± 6.37 mmHg
same,"arterial blood pO2, Day 4 (end of tx)",[4]; [7],143.85 ± 6.59 mmHg
same,"blood K+ level, Day 4 (1 hour tx)",[4]; [7],2.62 ± 0.29 mmol/L
same,"blood K+ level, Day 4 (end of tx)",[4]; [7],2.75 ± 0.27 mmol/L
same,"blood Na+ level, Day 4 (1 hour of tx)",[4]; [7],143.42 ± 1.84 mmol/L
same,"blood Na+ level, Day 4 (end of tx)",[4]; [7],146.14 ± 1.14 mmol/L
same,"blood hematocrit (Hct), Day 4 (1 hour of tx)",[4]; [7],33.28 ± 1.52 %
same,"blood hematocrit (Hct), Day 4 (end of tx)",[4]; [7],29.28 ± 2.22 %
same,"arterial blood pH, Day 4 (1 hour of tx)","[4]; saline+insulin, alone or after bolus BMS-182874 9 mg/kg or BQ123 1 mg/kg, instrument floor 6.80",6.81 ± 0.01
same,"arterial blood pH, Day 4 (end of tx)","[4]; saline+insulin, alone or after bolus BMS-182874 9 mg/kg or BQ123 1 mg/kg, instrument floor 6.80, hydrochloride",6.91±0.02
same,"arterial blood pH, Day 4 (end of tx)","[4]; saline+insulin, alone or after bolus BMS-182874 9 mg/kg or BQ123 1 mg/kg, instrument floor 6.80, listed as BMS, hydrochloride",6.91 ± 0.02
